In the NIST ThermoML archive (doi:10.1021/acs.jced.6b00536):

Test: xn = mol fraction of the nth substance listed
Details: Gas, Frequency=0.05 MHz, Single path-length method, x2 = 0.058

FC(F)(F)C(F)(F)C(F)(F)F [octafluoropropane] + N#N
Details	speed of sound [m/s]
252.62 K, 0.0858 kPa	109
252.62 K, 0.1039 kPa	108.4
252.62 K, 0.1203 kPa	107.8
252.62 K, 0.137 kPa	107.18
252.62 K, 0.1525 kPa	106.62
252.62 K, 0.1669 kPa	106.06
252.62 K, 0.1773 kPa	105.75
252.62 K, 0.1861 kPa	105.38
252.62 K, 0.1862 kPa	105.38
257.71 K, 0.08757 kPa	110.16
257.71 K, 0.1056 kPa	109.59
257.71 K, 0.1227 kPa	109
257.71 K, 0.1398 kPa	108.4
257.71 K, 0.1558 kPa	107.86
257.71 K, 0.1702 kPa	107.33
257.71 K, 0.181 kPa	107.04
257.71 K, 0.1898 kPa	106.68
257.71 K, 0.19 kPa	106.68
257.71 K, 0.2222 kPa	105.46
257.71 K, 0.2396 kPa	104.86
257.71 K, 0.2541 kPa	104.28
257.71 K, 0.2547 kPa	104.37
262.83 K, 0.08917 kPa	111.32
262.83 K, 0.1075 kPa	110.77
262.83 K, 0.125 kPa	110.2
262.83 K, 0.1429 kPa	109.63
262.83 K, 0.1589 kPa	109.12
262.83 K, 0.1737 kPa	108.6
262.83 K, 0.1844 kPa	108.31
262.83 K, 0.1937 kPa	107.97
262.83 K, 0.1942 kPa	107.97
262.83 K, 0.2273 kPa	106.8
262.83 K, 0.2449 kPa	106.21
262.83 K, 0.2605 kPa	105.64
262.83 K, 0.2771 kPa	105.01
262.83 K, 0.2894 kPa	104.6
267.94 K, 0.09058 kPa	112.46
267.94 K, 0.1095 kPa	111.93
267.94 K, 0.1273 kPa	111.39
267.94 K, 0.1462 kPa	110.83
267.94 K, 0.1619 kPa	110.33
267.94 K, 0.1773 kPa	109.83
267.94 K, 0.1883 kPa	109.56
267.94 K, 0.1978 kPa	109.24
267.94 K, 0.1983 kPa	109.23
267.94 K, 0.2324 kPa	108.11
267.94 K, 0.2503 kPa	107.55
267.94 K, 0.2663 kPa	106.99
267.94 K, 0.2836 kPa	106.41
267.94 K, 0.2966 kPa	105.98
273.07 K, 0.09281 kPa	113.6
273.07 K, 0.1111 kPa	113.09
273.07 K, 0.1299 kPa	112.57
273.07 K, 0.149 kPa	112.03
273.07 K, 0.1655 kPa	111.55
273.07 K, 0.1819 kPa	111.06
273.07 K, 0.1923 kPa	110.81
273.07 K, 0.2019 kPa	110.5
273.07 K, 0.2023 kPa	110.49
273.07 K, 0.2381 kPa	109.41
273.07 K, 0.2555 kPa	108.88
273.07 K, 0.2726 kPa	108.31
273.07 K, 0.2918 kPa	107.72
273.07 K, 0.3039 kPa	107.38
278.15 K, 0.0943 kPa	114.71
278.15 K, 0.1132 kPa	114.22
278.15 K, 0.1321 kPa	113.71
278.15 K, 0.1515 kPa	113.2
278.15 K, 0.1686 kPa	112.73
278.15 K, 0.1856 kPa	112.27
278.15 K, 0.1961 kPa	112.03
278.15 K, 0.2057 kPa	111.72
278.15 K, 0.2062 kPa	111.72
278.15 K, 0.2428 kPa	110.66
278.15 K, 0.2609 kPa	110.16
278.15 K, 0.2783 kPa	109.63
278.15 K, 0.2983 kPa	109.03
278.15 K, 0.3119 kPa	108.65
283.2 K, 0.09562 kPa	115.81
283.2 K, 0.1152 kPa	115.33
283.2 K, 0.1344 kPa	114.84
283.2 K, 0.1548 kPa	114.34
283.2 K, 0.1718 kPa	113.88
283.2 K, 0.1892 kPa	113.45
283.2 K, 0.1997 kPa	113.19
283.2 K, 0.2093 kPa	112.93
283.2 K, 0.2102 kPa	112.92
283.2 K, 0.2476 kPa	111.9
283.2 K, 0.2662 kPa	111.41
283.2 K, 0.2839 kPa	110.89
283.2 K, 0.3047 kPa	110.33
283.2 K, 0.3184 kPa	109.97
288.26 K, 0.09724 kPa	116.9
288.26 K, 0.117 kPa	116.43
288.26 K, 0.1367 kPa	115.96
288.26 K, 0.1569 kPa	115.48
288.26 K, 0.175 kPa	115.05
288.26 K, 0.193 kPa	114.61
288.26 K, 0.2034 kPa	114.38
288.26 K, 0.2133 kPa	114.1
288.26 K, 0.2142 kPa	114.08
288.26 K, 0.2525 kPa	113.14
288.26 K, 0.2716 kPa	112.65
288.26 K, 0.2896 kPa	112.16
288.26 K, 0.3111 kPa	111.61
288.26 K, 0.3249 kPa	111.24
293.32 K, 0.09882 kPa	117.97
293.32 K, 0.119 kPa	117.53
293.32 K, 0.1196 kPa	117.53
293.32 K, 0.139 kPa	117.08
293.32 K, 0.1393 kPa	117.06
293.32 K, 0.1596 kPa	116.59
293.32 K, 0.1599 kPa	116.61
293.32 K, 0.1779 kPa	116.19
293.32 K, 0.1782 kPa	116.19
293.32 K, 0.1958 kPa	115.78
293.32 K, 0.1967 kPa	115.77
293.32 K, 0.207 kPa	115.54
293.32 K, 0.2174 kPa	115.26
293.32 K, 0.218 kPa	115.26
293.32 K, 0.2185 kPa	115.27
293.32 K, 0.2573 kPa	114.33
293.32 K, 0.2766 kPa	113.86
293.32 K, 0.2771 kPa	113.88
293.32 K, 0.2946 kPa	113.41
293.32 K, 0.2954 kPa	113.39
293.32 K, 0.3175 kPa	112.86
293.32 K, 0.3315 kPa	112.52
298.38 K, 0.1005 kPa	119.04
298.38 K, 0.121 kPa	118.61
298.38 K, 0.1413 kPa	118.17
298.38 K, 0.1627 kPa	117.7
298.38 K, 0.1814 kPa	117.31
298.38 K, 0.2001 kPa	116.91
298.38 K, 0.2106 kPa	116.69
298.38 K, 0.2213 kPa	116.42
298.38 K, 0.222 kPa	116.42
298.38 K, 0.262 kPa	115.52
298.38 K, 0.282 kPa	115.07
298.38 K, 0.3011 kPa	114.61
298.38 K, 0.3239 kPa	114.1
298.38 K, 0.338 kPa	113.78
303.42 K, 0.1021 kPa	120.1
303.42 K, 0.1231 kPa	119.68
303.42 K, 0.1437 kPa	119.25
303.42 K, 0.1656 kPa	118.81
303.42 K, 0.1845 kPa	118.41
303.42 K, 0.2036 kPa	118.03
303.42 K, 0.2142 kPa	117.81
303.42 K, 0.2253 kPa	117.56
303.42 K, 0.2258 kPa	117.55
303.42 K, 0.2668 kPa	116.7
303.42 K, 0.2873 kPa	116.26
303.42 K, 0.3067 kPa	115.81
303.42 K, 0.3302 kPa	115.32
303.42 K, 0.3443 kPa	114.98
308.47 K, 0.1038 kPa	121.14
308.47 K, 0.1251 kPa	120.73
308.47 K, 0.146 kPa	120.32
308.47 K, 0.1683 kPa	119.89
308.47 K, 0.1877 kPa	119.52
308.47 K, 0.207 kPa	119.14
308.47 K, 0.2178 kPa	118.93
308.47 K, 0.2293 kPa	118.7
308.47 K, 0.2297 kPa	118.68
308.47 K, 0.2717 kPa	117.84
308.47 K, 0.2924 kPa	117.42
308.47 K, 0.3124 kPa	116.99
308.47 K, 0.3365 kPa	116.51
308.47 K, 0.3509 kPa	116.21
313.51 K, 0.1052 kPa	122.18
313.51 K, 0.1271 kPa	121.79
313.51 K, 0.1483 kPa	121.39
313.51 K, 0.171 kPa	120.97
313.51 K, 0.1907 kPa	120.6
313.51 K, 0.2105 kPa	120.24
313.51 K, 0.2214 kPa	120.03
313.51 K, 0.2331 kPa	119.78
313.51 K, 0.2338 kPa	119.8
313.51 K, 0.2763 kPa	118.97
313.51 K, 0.2975 kPa	118.58
313.51 K, 0.318 kPa	118.15
313.51 K, 0.3428 kPa	117.7
313.51 K, 0.3574 kPa	117.4
318.52 K, 0.1068 kPa	123.2
318.52 K, 0.1291 kPa	122.82
318.52 K, 0.1506 kPa	122.42
318.52 K, 0.1737 kPa	122.03
318.52 K, 0.1939 kPa	121.67
318.52 K, 0.2139 kPa	121.32
318.52 K, 0.2251 kPa	121.12
318.52 K, 0.2374 kPa	120.89
318.52 K, 0.2377 kPa	120.89
318.52 K, 0.2812 kPa	120.11
318.52 K, 0.3027 kPa	119.71
318.52 K, 0.3235 kPa	119.3
318.52 K, 0.349 kPa	118.86
318.52 K, 0.3638 kPa	118.57
323.53 K, 0.1085 kPa	124.22
323.53 K, 0.1312 kPa	123.85
323.53 K, 0.1531 kPa	123.46
323.53 K, 0.1766 kPa	123.09
323.53 K, 0.197 kPa	122.74
323.53 K, 0.2175 kPa	122.4
323.53 K, 0.2288 kPa	122.2
323.53 K, 0.2413 kPa	121.97
323.53 K, 0.2416 kPa	121.98
323.53 K, 0.2859 kPa	121.21
323.53 K, 0.308 kPa	120.83
323.53 K, 0.3293 kPa	120.45
323.53 K, 0.3551 kPa	120.01
323.53 K, 0.3704 kPa	119.72
